Test results reported in PubChem BioAssay AID1259407 (Chemical Carcinogenesis Research Information System (CCRIS), 2018).
Calls of active or inactive are those of the source. The rule behind the calls is not given here.

Test system: CCRIS mutagenicity, Ames/micronucleus/aberration tests
Test: CCRIS mutagenicity studies
[1] = Test System: AMES SALMONELLA TYPHIMURIUM, Strain/Indicator: TA98, Metabolic Activation: HAMSTER, LIVER, S-9, AROCLOR 1254 (10%), Method: PREINCUBATION
[2] = Test System: AMES SALMONELLA TYPHIMURIUM, Strain/Indicator: TA98, Metabolic Activation: NONE, Method: PREINCUBATION
[3] = Test System: AMES SALMONELLA TYPHIMURIUM, Strain/Indicator: TA98, Metabolic Activation: RAT, LIVER, S-9, AROCLOR 1254 (10%), Method: PREINCUBATION
[4] = Test System: AMES SALMONELLA TYPHIMURIUM, Strain/Indicator: TA100, Metabolic Activation: HAMSTER, LIVER, S-9, AROCLOR 1254 (10%), Method: PREINCUBATION
[5] = Test System: AMES SALMONELLA TYPHIMURIUM, Strain/Indicator: TA100, Metabolic Activation: NONE, Method: PREINCUBATION
[6] = Test System: AMES SALMONELLA TYPHIMURIUM, Strain/Indicator: TA100, Metabolic Activation: RAT, LIVER, S-9, AROCLOR 1254 (10%), Method: PREINCUBATION
[7] = Test System: AMES SALMONELLA TYPHIMURIUM, Strain/Indicator: TA1535, Metabolic Activation: HAMSTER, LIVER, S-9, AROCLOR 1254 (10%), Method: PREINCUBATION
[8] = Test System: AMES SALMONELLA TYPHIMURIUM, Strain/Indicator: TA1535, Metabolic Activation: NONE, Method: PREINCUBATION
[9] = Test System: AMES SALMONELLA TYPHIMURIUM, Strain/Indicator: TA1535, Metabolic Activation: RAT, LIVER, S-9, AROCLOR 1254 (10%), Method: PREINCUBATION
[10] = Test System: AMES SALMONELLA TYPHIMURIUM, Strain/Indicator: TA1537, Metabolic Activation: HAMSTER, LIVER, S-9, AROCLOR 1254 (10%), Method: PREINCUBATION
[11] = Test System: AMES SALMONELLA TYPHIMURIUM, Strain/Indicator: TA1537, Metabolic Activation: NONE, Method: PREINCUBATION
[12] = Test System: AMES SALMONELLA TYPHIMURIUM, Strain/Indicator: TA1537, Metabolic Activation: RAT, LIVER, S-9, AROCLOR 1254 (10%), Method: PREINCUBATION

For Oc1c(Br)cc(Br)cc1Br, the mutagenic call [1] was “inactive; negative”, the mutagenic call (Test System: AMES SALMONELLA TYPHIMURIUM, Strain/Indicator: TA98, Metabolic Activation: HAMSTER, LIVER, S-9, AROCLOR 1254, Method: STANDARD PLATE) was “inactive; negative” and the mutagenic call [2] was “inactive; negative”. The mutagenic call (Test System: AMES SALMONELLA TYPHIMURIUM, Strain/Indicator: TA98, Metabolic Activation: NONE, Method: STANDARD PLATE) was “inactive; negative”, the mutagenic call [3] was “inactive; negative” and the mutagenic call (Test System: AMES SALMONELLA TYPHIMURIUM, Strain/Indicator: TA98, Metabolic Activation: RAT, LIVER, S-9, AROCLOR 1254, Method: STANDARD PLATE) was “inactive; negative”. For the same compound, the mutagenic call [4] was “inactive; negative”, the mutagenic call (Test System: AMES SALMONELLA TYPHIMURIUM, Strain/Indicator: TA100, Metabolic Activation: HAMSTER, LIVER, S-9, AROCLOR 1254, Method: STANDARD PLATE) was “inactive; negative” and the mutagenic call [5] was “inactive; negative”. For the same compound, the mutagenic call (Test System: AMES SALMONELLA TYPHIMURIUM, Strain/Indicator: TA100, Metabolic Activation: NONE, Method: STANDARD PLATE) was “inactive; negative”, the mutagenic call [6] was “inactive; negative” and the mutagenic call (Test System: AMES SALMONELLA TYPHIMURIUM, Strain/Indicator: TA100, Metabolic Activation: RAT, LIVER, S-9, AROCLOR 1254, Method: STANDARD PLATE) was “inactive; negative”. The mutagenic call [7] was “inactive; negative”, the mutagenic call (Test System: AMES SALMONELLA TYPHIMURIUM, Strain/Indicator: TA1535, Metabolic Activation: HAMSTER, LIVER, S-9, AROCLOR 1254, Method: STANDARD PLATE) was “inactive; negative” and the mutagenic call [8] was “inactive; negative”. The mutagenic call (Test System: AMES SALMONELLA TYPHIMURIUM, Strain/Indicator: TA1535, Metabolic Activation: NONE, Method: STANDARD PLATE) was “inactive; negative”, the mutagenic call [9] was “inactive; negative” and the mutagenic call (Test System: AMES SALMONELLA TYPHIMURIUM, Strain/Indicator: TA1535, Metabolic Activation: RAT, LIVER, S-9, AROCLOR 1254, Method: STANDARD PLATE) was “inactive; negative”. For the same compound, the mutagenic call [10] was “inactive; negative”, the mutagenic call (Test System: AMES SALMONELLA TYPHIMURIUM, Strain/Indicator: TA1537, Metabolic Activation: HAMSTER, LIVER, S-9, AROCLOR 1254, Method: STANDARD PLATE) was “inactive; negative” and the mutagenic call [11] was “inactive; negative”. The mutagenic call (Test System: AMES SALMONELLA TYPHIMURIUM, Strain/Indicator: TA1537, Metabolic Activation: NONE, Method: STANDARD PLATE) was “inactive; negative”, the mutagenic call [12] was “inactive; negative” and the mutagenic call (Test System: AMES SALMONELLA TYPHIMURIUM, Strain/Indicator: TA1537, Metabolic Activation: RAT, LIVER, S-9, AROCLOR 1254, Method: STANDARD PLATE) was “inactive; negative”. For the same compound, the mutagenic call (Test System: AMES SALMONELLA TYPHIMURIUM, Strain/Indicator: TA1538, Metabolic Activation: HAMSTER, LIVER, S-9, AROCLOR 1254, Method: STANDARD PLATE) was “inactive; negative”, the mutagenic call (Test System: AMES SALMONELLA TYPHIMURIUM, Strain/Indicator: TA1538, Metabolic Activation: NONE, Method: STANDARD PLATE) was “inactive; negative” and the mutagenic call (Test System: AMES SALMONELLA TYPHIMURIUM, Strain/Indicator: TA1538, Metabolic Activation: RAT, LIVER, S-9, AROCLOR 1254, Method: STANDARD PLATE) was “inactive; negative”. The mutagenic call (Test System: MOUSE LYMPHOMA, Strain/Indicator: L5178Y (TK+/TK-), Metabolic Activation: NONE, Method: SUSPENSION/PLATE) was “active; positive. reevaluation of results: positive”, the mutagenic call (Test System: MOUSE LYMPHOMA, Strain/Indicator: L5178Y (TK+/TK-), Metabolic Activation: RAT, LIVER, S-9, AROCLOR 1254, Method: SUSPENSION/PLATE) was “inactive; negative. reevaluation of results: negative” and the mutagenic call (Test System: Mouse lymphoma, Strain/Indicator: L5178Y (tk+/tk-), Metabolic Activation: None, Method: Suspension/plate) was “active; positive”. For the same compound, the mutagenic call (Test System: Mouse lymphoma, Strain/Indicator: L5178Y (tk+/tk-), Metabolic Activation: Rat, Liver, S-9, Aroclor 1254, Method: Suspension/plate) was “inactive; negative”.

COC(=O)C(c1ccccc1)C1CCCCN1 (stereo not drawn) was tested, and the mutagenic call (End Point: IN VITRO CHROMOSOMAL ABERRATIONS, Test System: CHINESE HAMSTER OVARY CELLS, Metabolic Activation: NONE) was “inactive; negative”, the mutagenic call (End Point: IN VITRO CHROMOSOMAL ABERRATIONS, Test System: CHINESE HAMSTER OVARY CELLS, Metabolic Activation: RAT, LIVER, S-9, AROCLOR 1254) was “active; positive” and the mutagenic call (End Point: In vivo chromosomal aberrations, Test System: Peripheral blood lymphocytes, Species: Monkey, Strain/Sex: Rhesus/Male, Route: Oral) was “inactive; negative”. For the same compound, the mutagenic call (End Point: In vivo micronucleus, Test System: Peripheral blood lymphocytes, Species: Monkey, Strain/Sex: Rhesus/Male, Route: Oral) was “inactive; negative”, the mutagenic call (Test System: AMES SALMONELLA TYPHIMURIUM, Strain/Indicator: TA97, Metabolic Activation: HAMSTER, LIVER, S-9, AROCLOR 1254 (10 OR 30%), Method: PREINCUBATION) was “inactive; negative” and the mutagenic call (Test System: AMES SALMONELLA TYPHIMURIUM, Strain/Indicator: TA97, Metabolic Activation: NONE, Method: PREINCUBATION) was “inactive; negative”. The mutagenic call (Test System: AMES SALMONELLA TYPHIMURIUM, Strain/Indicator: TA97, Metabolic Activation: RAT, LIVER, S-9, AROCLOR 1254 (10 OR 30%), Method: PREINCUBATION) was “inactive; negative”, the mutagenic call [1] was “inactive; negative” and the mutagenic call (Test System: AMES SALMONELLA TYPHIMURIUM, Strain/Indicator: TA98, Metabolic Activation: HAMSTER, LIVER, S-9, AROCLOR 1254 (30%), Method: PREINCUBATION) was “inactive; negative”. The mutagenic call [2] was “inactive; negative”, the mutagenic call [3] was “inactive; negative” and the mutagenic call (Test System: AMES SALMONELLA TYPHIMURIUM, Strain/Indicator: TA98, Metabolic Activation: RAT, LIVER, S-9, AROCLOR 1254 (30%), Method: PREINCUBATION) was “inactive; negative”. The mutagenic call [4] was “inactive; negative”, the mutagenic call (Test System: AMES SALMONELLA TYPHIMURIUM, Strain/Indicator: TA100, Metabolic Activation: HAMSTER, LIVER, S-9, AROCLOR 1254 (30%), Method: PREINCUBATION) was “inactive; negative” and the mutagenic call [5] was “inactive; negative”. The mutagenic call [6] was “inactive; negative”, the mutagenic call (Test System: AMES SALMONELLA TYPHIMURIUM, Strain/Indicator: TA100, Metabolic Activation: RAT, LIVER, S-9, AROCLOR 1254 (30%), Method: PREINCUBATION) was “inactive; negative” and the mutagenic call [7] was “inactive; negative”. The mutagenic call (Test System: AMES SALMONELLA TYPHIMURIUM, Strain/Indicator: TA1535, Metabolic Activation: HAMSTER, LIVER, S-9, AROCLOR 1254 (30%), Method: PREINCUBATION) was “inactive; negative”, the mutagenic call [8] was “inactive; negative” and the mutagenic call [9] was “inactive; negative”. The mutagenic call (Test System: AMES SALMONELLA TYPHIMURIUM, Strain/Indicator: TA1535, Metabolic Activation: RAT, LIVER, S-9, AROCLOR 1254 (30%), Method: PREINCUBATION) was “inactive; negative”, the mutagenic call [10] was “inactive; negative” and the mutagenic call [11] was “inactive; negative”. For the same compound, the mutagenic call [12] was “inactive; negative” and the mutagenic call (Test System: Rhesus monkey peripheral blood lymphocytes, Strain/Indicator: HPRT/6-Thioguanine, Metabolic Activation: None, Method: Determined at 3-mo intervals from test subjects exposed to test chemical for 20 mo) was “inactive; negative”.

For CCOC(=O)[C@@H](N)CS, the mutagenic call (Test System: AMES SALMONELLA TYPHIMURIUM, Strain/Indicator: TA102, Metabolic Activation: NONE, Method: STANDARD PLATE) was “active; positive”.
